In brackets after ≈: the same amount, converted by molar mass. Read-outs that look alike come from different tables or passages of the source. One block for each compound: values may come before it.
Key:
[1] = system: Hind-III restriction fragments of lambda DNA; test: Photobinding of BIODMIP to lambda DNA fragments; assay type: binding; conditions: 100 µg/ml plus 50 µg additional; two 30 minute irradiations at room temperature with the PTI device
Protocol: BIODMIP (100 µg/ml) was irradiated for 30 minutes at room temperature with the PTI device in 500 µl of 1 x TE buffer with 2 µg of Hind-III restriction fragments of lambda DNA. After the first irradiation, the mixture was transferred to a new tube containing 50 µg additional BIODMIP and this was incubated at 37°C for one hour to dissolve the compound. This was followed by a second 30 minute irradiation at room temperature with the PTI device. It was observed that, under these conditions BIODMIP added to the DNA at a ratio of 1 covalently bound BIODMIP per 20 base pairs.

[2] = system: DNA polymerase I from E. coli. B; conditions: cited from earlier work; for template activity lost by modified DNA: C.M. Ou et al., covalently modified DNA
[3] = water; cited from earlier work
[4] = system: human placental DNA; test: PCR amplification with unirradiated AMDMIP and DMSO co-solvent; assay type: biochemical; conditions: no AMDMIP, average of duplicates, 139,000 at 0% DMSO
Protocol: In this example, the effect of DMSO on PCR amplification in the presence of high concentrations of sterilizing compound (AMDMIP) was investigated. Samples were prepared for PCR which contained 1 µg of human placental DNA either with or without (unirradiated) AMDMIP (200 µg/ml). The samples were amplified 30 cycles under standard PCR conditions in the presence of 0%, 1%, 5% or 10% DMSO. The reaction mix contained α-^32P-dCTP. Following amplification, the samples were analyzed by PAGE (data not shown).

[5] = system: Taq I DNA polymerase; test: Primer extension on site-specific 71-mer monoadduct template; assay type: biochemical, Thermus aquaticus; conditions: 55°C; 0.5, 1.0, 5.0 mins; PAGE, autoradiography
Protocol: In this experiment, monoadducted 71-mers (as well as unmodified 71-mers) were used in template-dependent enzymatic extension. AMIP, AMDMIP, and MIP 71-mer monoadducts were made as in Example 17. Extension was carried out as in Example 18 except that in this experiment, Taq I DNA polymerase, a thermostable DNA polymerase isolated from Thermus aquaticus (Stratagene, Inc., La Jolla, CA) was assessed for its ability to read past isopsoralens.
The reaction mixture was in 80 µl total volume and comprised 1 x Taq buffer, 200 µM each of dNTP's, 0.05 units of Taq per µl of reaction volume; 1 x 10^-9 M in 71-mer MA; 1 x 10^-8 M in ^32P-labelled SK-39. Each reaction was set up with everything except Taq polymerase. The samples were initially heated to 95°C for 5 mins, then incubated at 55°C for 3 mins. The extension reaction was initiated by addition of Taq polymerase. At the indicated time points (0.5, 1.0, 5.0 mins), 20 µl of the reaction mix was removed to a tube containing 1 µl of 0.5 M EDTA to stop the reaction. All products were analyzed on a 20% polyacrylamide, 7 M urea gel followed by autoradiography.
This experiment investigated whether blocking of Taq polymerase by monoadducts is complete or whether monoadducts can be bypassed by the enzyme. In order to view the process of bypass synthesis, it is necessary to cycle the extension reaction of the primer with the 71-mer templates. Cycling in this case consists of mixing the primer with the 71-mer template, adding Taq polymerase and appropriate reagents, extending, heating to induce strand separation, reannealing of the primer to the 71-mer template, extending again, and subsequent stand separation. This process can be repeated as necessary. During this process, only the complement of the 71-mer template is being synthesized. It is accumulating in a linear fashion with the number of thermal cycles (in contrast to PCR where both strands are being synthesized and accumulate geometrically).
The templates and reaction conditions were as in Example 19 above except that three samples were used for each monoadduct and each sample was tested under different conditions: • Samples (1): one sample for each monoadduct was used to carry out extension at 55°C as in Example 43; • Samples (2): one sample for each monoadduct was used to carry out extension by the following series of steps: denaturing at 95°C; incubating for 30 seconds at 55°C; adding Taq polymerase for 3 minutes at 550C; cooling the reaction for 1 minute at 7°C; stopping the reaction with EDTA for one minute at 95°C: • Samples (3): one sample for each monoadduct was used to carry out extension by repeating the following series of steps nine times: denaturing at 95°C; incubating for 30 seconds at 55°C; adding Taq polymerase for 3 minutes at 55°C; cooling the reaction for 1 minute at 7°C. At the end, the reaction is stopped with EDTA for one minute at 95°C.
To investigate this question further, a new 5-MIP monoadducted 71-mer was prepared by repurification of the HPLC purified 5-MIP monoadducted 15-mer by PAGE. In this way, more of the non-monoadducted 15-mer was removed prior to ligation. The purified 71-mer was then used as template in an extension experiment as described in Example 20. After 10 cycles, there was still evidence of extension product (Figure 34).
Monoadducted 71-mer was constructed as described, but for HMT. Extension was carried out and analyzed as before on PAGE. […] Full length 71-mer is not made and a shorter strand corresponding to the position of the HMT adduct was made.

[6] = Solubility of photoreactive compounds in 1 X TE (optical density of filtrate); assay type: physicochemical; conditions: nd = not detectable (solubility was less than 1 µg/ml)
Protocol: The solubilities of AMIP, AMDMIP, DMIP, MIP and isopsoralen (IP) were determined experimentally according to the scheme set forth in Figure 5. To perform the solubility measurement, it was first necessary to establish known optical densities for a 1 µg/ml solution of each compound. These were determined by preparing either ethanolic or aqueous stocks of each compound at known concentrations in 1 x TE, then measuring the optical density of each solution. From this information, the absorption of a 1 µg/ml solution was computed. Alternatively, the extinction coefficient may be thus determined and used in the same fashion. In this manner, the following absorption data was collected:
Following this step, undissolved compound was removed by filtration using a 0.2 u nylon-66 syringe filter (Arco LC13; Gelman). The concentration of the remaining soluble compound was then determined by measuring the optical density of the filtrate and computing the solubility from the known optical density of a 1 µg/ml solution of that compound. The solubility of the compounds was thus determined to be as follows: […]

[7] = biological target: Taq polymerase (Thermus aquaticus, UniProt P19821); test: Primer extension on 71-mer after random addition of compound or addition of photoproduct; assay type: biochemical
Sequence of Taq polymerase (P19821 whole entry): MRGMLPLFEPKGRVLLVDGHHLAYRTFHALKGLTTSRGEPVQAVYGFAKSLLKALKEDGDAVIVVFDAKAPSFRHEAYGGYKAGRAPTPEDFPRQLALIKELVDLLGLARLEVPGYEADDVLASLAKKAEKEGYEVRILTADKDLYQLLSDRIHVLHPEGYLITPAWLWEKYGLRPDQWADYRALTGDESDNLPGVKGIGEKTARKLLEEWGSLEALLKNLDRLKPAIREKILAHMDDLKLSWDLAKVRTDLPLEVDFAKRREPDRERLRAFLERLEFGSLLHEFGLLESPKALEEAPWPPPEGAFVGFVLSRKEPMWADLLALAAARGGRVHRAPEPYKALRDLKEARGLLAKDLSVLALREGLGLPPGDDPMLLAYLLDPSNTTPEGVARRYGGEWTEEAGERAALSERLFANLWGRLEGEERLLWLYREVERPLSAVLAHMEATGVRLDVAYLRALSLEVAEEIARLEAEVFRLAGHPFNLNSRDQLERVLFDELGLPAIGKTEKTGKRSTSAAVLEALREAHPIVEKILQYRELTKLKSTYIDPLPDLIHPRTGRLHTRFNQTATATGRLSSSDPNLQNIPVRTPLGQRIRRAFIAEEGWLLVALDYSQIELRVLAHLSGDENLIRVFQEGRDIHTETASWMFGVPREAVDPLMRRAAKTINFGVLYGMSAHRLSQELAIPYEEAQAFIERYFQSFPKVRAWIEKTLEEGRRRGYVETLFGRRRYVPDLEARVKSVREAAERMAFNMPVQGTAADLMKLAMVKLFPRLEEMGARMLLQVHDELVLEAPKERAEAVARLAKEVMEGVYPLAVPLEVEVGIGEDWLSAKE
Excerpt: In this experiment, the ability of AMIP, AMDMIP and MIP to block replication of 71-mer is investigated by randomly adding each compound to the 71-mer. of course, addition may only be random in the sense that one or more adducts may be formed with any one strand of nucleic acid. The actual placement of the isopsoralen may be governed by preferential binding at particular sites (e.g. A:T). In addition to blockage by random adducts, photoproducts of the various isopsoralens may be providing an inhibitory effect. No attempt to separate the effects of photoproduct from the effects of covalent adducts on the 71-mer template was made in this series of experiments.
In these experiments, the 71-mer template (10^-9 M) was primed with ^32P-SK-39 (10^-8) and extended with Taq polymerase in a total volume of 20 µl. The dNTP concentration was 200 µM. In the control samples, the 71-mer, the primer, and the dNTPs were mixed in Taq buffer in a volume of 18 µl. These samples were initially denatured at 95°C for 5 minutes, followed by equilibration at 550C for 3 minutes. Taq enzyme was then added (0.5 units) and the extension reaction was carried out for 5 minutes at 55°C. The reaction was stopped by making the solution 10 mM in EDTA. In another set of samples, the 71-mer in 10 µl was mixed with either AMIP (200 µg/ml), AMDMIP (200 µg/ml), or MIP (60 µg/ml). Half of these samples were irradiated for 15 minutes on the CE-I device at 25°C. The other half was kept in the dark as controls. These samples were then mixed with the primer and dNTPs as before, and were subjected to the same thermal profile and extension reactions as the samples that were described earlier. The results were examined by PAGE. The extended product bands were identified by autoradiography, excised and counted (data not shown).
In this experiment, the ability of two different Phenylazide derivatives (see Table 1), photobiotin (Vector Labs) and monoazide ethidium chloride, to block replication of 71-mer was investigated by randomly adding each compound to the 71-mer. Again, addition may only be random in the sense that one or more adducts may be formed with any one strand of nucleic acid. The actual placement of these compounds may be governed by preferential binding at particular sites (e.g. A:T). In addition to blockage by random adducts, there may be inhibition by photoproducts. As in Example 23, no attempt was made to separate the impact of photoproducts from that of covalent binding of photoreactive compound on the 71-mer.
The two compounds, photobiotin and monoazide ethidium chloride, have different spectral characteristics. To activate these compounds, two different wavelength regions were selected using a single light source (General Electric Sunlamp, Model RSM, 275 watt). The light source was positioned 10 cm above uncapped Eppendorph tubes which contained samples to be irradiated. The samples were kept on ice during irradiation. A pyrex dish was placed between the lamp and the samples.
For samples containing photobiotin, 2.5 cm of water was added to the pyrex dish to help remove some of the infrared radiation. The samples were irradiated for 15 minutes.
For samples containing monoazide ethidium chloride, wavelengths less than 400 nm were filtered out by using 2.5 cm of an aqueous solution of 2.9 M NaNO2. Removal of short wavelengths (i.e. wavelengths shorter than 400 nm) is necessary for the use of monoazide ethidium chloride. Irradiation of this compound with shorter wavelengths results in conversion to non-active forms (data not shown). Wavelengths below 400 nm are therefore undesirable for use with this compound.
In this experiment, the 71-mer template (2 x 10^-9 M) in 10 µl was mixed with either no photoreactive compound, photobiotin (6 x 10^-6 M), or monoazide ethidium (1.4 x 10^-3 M). Half of each of these samples were irradiated on ice for 15 minutes with wavelengths appropriate for each specific photoreactive compound. […]

[8] = system: HIV 115-mer; test: PCR with pre-irradiated photobiotin or monoazide ethidium chloride; assay type: biochemical
Protocol: In this experiment, photobiotin and monoazide ethidium chloride were tested as PCR sterilization reagents. The temporal steps were performed to examine photoproduct effects (if any). Solutions of photobiotin and monoazide ethidium chloride were made up in 1 x Taq buffer. Concentrations of photobiotin ranged form 7 x 10^-4 M to […]: concentrations of the monoazide ethidium chloride ranged from 3 x 10^-9 M to 3 x 10^-10M. […] Each compound solution was divided into two parts: One part was irradiated under a GE sunlamp through a pyrex filter (300nm cut-off); the other half was irradiated under a GE sunlamp through a 2.9 M NaNO2 liquid filter (400 nm cut-off). Irradiations were carried out on ice for 15 minutes. After irradiation, aliquots of each tube were carried over into tubes containing PCR reagents and target (HIV 115-mer); PCR was then carried out for 30 cycles in the presence of α-^32P-dCTP. After amplification aliquots were analyzed on 12% acrylamide/8M urea gels.

ratio of 1 covalently bound BIODMIP per n base pairs [1]: 20 base pairs
Compound: Cc1oc2ccc3c(C)cc(=O)oc3c2c1CN(C)CCCCCCN(C)C(=O)CCCCCNC(=O)CCCC[C@@H]1SC[C@@H]2NC(=O)N[C@@H]21 [BIODMIP, 4'-N-[N,N'-dimethyl-N'-(6-{biotinamido} -hexanoate)-1,6-hexanediamine] -methyl-4,5'-dimethylisopsoralen]

Compound: COc1c2occc2cc2ccc(=O)oc12 [Compound 8-MOP, 8-methoxypsoralen]
template activity lost by modified DNA [2]: 97%

Compound: COc1cc(OC)c2ccc(=O)oc2c1 [DMC, 5,7-dimethoxycoumarin]
template activity lost by modified DNA [2]: 50%

Compound: Cc1cc2c(ccc3c(C)cc(=O)oc32)o1 [DMIP, 4,5'-Dimethylisopsoralen]
maximum aqueous solubility [3]: 8 µg/mL

Compound: C[S+](C)[O-] [DMSO, dimethyl sulfoxide]
CPM of product bands ([4]; 1% DMSO): 137,000 CPM
CPM of product bands ([4]; 5% DMSO): 94,000 CPM
CPM of product bands ([4]; 10% DMSO): 76,000 CPM

Compound: Cc1oc2c(C)c3oc(=O)cc(C)c3cc2c1CO [HMT, 4'-hydroxymethyl-4,5',8-trimethylpsoralen]
Taq polymerase extension on 71-mer monoadduct template [5]: stop Taq polymerase
inhibition of E. Coli polymerase I by covalently bound monoadducts ([2]; Piette and Hearst 1983, nick-translating a double-stranded template): not inhibited
inhibition of E. Coli polymerase I by covalently bound monoadducts ([2]; Piette and Hearst 1985, single-stranded template (bacteriophage DNA)): inhibited

Compound: O=c1ccc2ccc3occc3c2o1 [IP, isopsoralen]
Solubility in 1 X TE [6]: 2 µg/mL (≈ 10.7 µM)

extension after irradiation ([7]; photobiotin (6 x 10^-6 M), irradiated on ice for 15 minutes, GE sunlamp): inhibition only after irradiation
Compound: CN(CCCNC(=O)CCCC[C@@H]1SC[C@@H]2NC(=O)N[C@@H]21)CCCNc1ccc(N=[N+]=[N-])cc1[N+](=O)[O-] [photobiotin, reference compound]
concentration at which pre-irradiated compound shut down PCR ([8]; highest concentration used, 115-mer amplified at all lower concentrations): 700 µM

Compound: monoazide ethidium chloride [reference compound]
extension, dark control ([7]; photobiotin (6 x 10^-6 M) or monoazide ethidium (1.4 x 10^-3 M), kept in the dark): inhibition of extension
inhibition of PCR by pre-irradiated compound ([8]; irradiated on ice 15 minutes under GE sunlamp before addition to PCR, 30 cycles): does not inhibit PCR

Source: patent publication EP0497921B1, “METHOD FOR INHIBITING ENZYMATIC SYNTHESIS OF NUCLEIC ACIDS USING ISOPSORALENS” (ISAACS, Stephen T., priority 1989, dated 1991)
